# Source: patent publication US20200085839A1, “COMBINATION OF IMMUNOTHERAPEUTICS AND BISFLUOROALKYL-1,4-BENZODIAZEPINONE COMPOUNDS FOR TREATING LYMPHOMAS” (Ayala Pharmaceuticals Inc., priority 2018, published 2020)
# Like-named read-outs stand apart in the source and are kept apart here.
# Legend:
# Experiment in all cases: Cell surface BCMA by FACS
# Assay type in all cases: cell-based, human
# HT cells (DLBCL) = settings: for EC50: Homo sapiens
# Method: (§1) […] cell lines, comprising 9 subtypes of lymphomas (see Table 1), were seeded at 1×10^5 cells/well in a total volume of 250 μl into a 96-well plate. The cells were cultured in RPMI medium supplemented with 10% FCS. Compound (22) was added to the cell cultures at a concentration of 10 μM, 1 μM, 100 nM, 10 nM, 1 nM, 100 pM, 10 pM, 1 pM, and 100 fM, and cell lines (8 from Hadassah Medical Center, 31 from Eurofins) were incubated at 37° C. for 24 hours with Compound (22). Following incubation, the cells were collected and BCMA levels were evaluated on the cell surface for cell-bound BCMA. Cells were stained with an anti-BCMA antibody (PE anti-human 19F2 BCMA, Biolegend), and cell surface BCMA levels were determined by FACS analysis (Mean Fluorescence Intensity. Soluble BCMA levels were analyzed by ELISA (Human BCMA/TNFRSF17 DuoSet kit: R&D Systems).
# [1] = tested on: SUDHL-4 (Eurofins) cells (DLBCL); printed SUDHL in Table 1; settings: for EC50: Homo sapiens, SU-DHL-4
# Method: as §1
# SUDHL-10 cells (DLBCL) = settings: for EC50: Homo sapiens
# Method: as §1
# [2] = tested on: RPMI-6666 cells (Hodgkin's Lymphoma); settings: for EC50: Homo sapiens
# Method: as §1
# [3] = tested on: Ramos cells (Burkitt's Lymphoma); settings: for EC50: Homo sapiens
# Method: as §1
# [4] = tested on: SR cells (Anaplastic Large Cell Lymphoma); settings: for EC50: Homo sapiens
# Method: as §1
# [5] = tested on: JVM-2 cells (Mantle Cell Lymphoma); settings: for EC50: Homo sapiens
# Method: as §1
# DB cells (DLBCL) = settings: for EC50: Homo sapiens
# Method: as §1
# DOHH-2 cells (DLBCL) = settings: for EC50: Homo sapiens
# Method: as §1
# [6] = tested on: L-248 cells (Hodgkin's Lymphoma); settings: for EC50: Homo sapiens
# Method: as §1
# [7] = 24 h, read-out: BCMA (Mean Fluorescence Intensity) EC50
structure (smiles),measurement,setting,value
"Cc1cccc2c1NC(=O)[C@@H](NC(=O)[C@H](CCC(F)(F)F)[C@H](CCC(F)(F)F)C(N)=O)N=C2c1cccc(F)c1 [Compound (22), (2R,3S)—N-((3S)-5-(3-fluorophenyl)-9-methyl-2-oxo-2,3-dihydro-1H-1,4-benzodiazepin-3-yl)-2,3-bis(3,3,3-trifluoropropyl)succinamide]",BCMA (Mean Fluorescence Intensity) 100 nM Compound (22),"HT cells (DLBCL); 100 nM, 24 h",895
same,EC50,HT cells (DLBCL); [7],2.3 nM
same,EC50,HT cells (DLBCL); read-out: mBCMA (MFI) EC50,2.3 nM
same,EC50,"[1]; SUDHL-4 (Eurofins), read-out: mBCMA (MFI) EC50",1.6 nM
same,EC50,"[1]; SUDHL, 24 h, read-out: BCMA (Mean Fluorescence Intensity) EC50",1.6 nM
same,mBCMA (MFI) Fold Increase,[1]; SUDHL-4 (Eurofins),9.1 fold
same,BCMA (Mean Fluorescence Intensity) 1 nM Compound (22),"[1]; SUDHL, 1 nM, 24 h",7568
same,BCMA (Mean Fluorescence Intensity) 100 nM Compound (22),"[1]; SUDHL, 100 nM, 24 h",20540
same,mBCMA (MFI) Fold Increase,SUDHL-10 cells (DLBCL),6.7 fold
same,BCMA (Mean Fluorescence Intensity) 1 nM Compound (22),"SUDHL-10 cells (DLBCL); 1 nM, 24 h",6061
same,BCMA (Mean Fluorescence Intensity) 100 nM Compound (22),"SUDHL-10 cells (DLBCL); 100 nM, 24 h",7822
same,EC50,"SUDHL-10 cells (DLBCL); SU-DHL10, 24 h, read-out: BCMA (Mean Fluorescence Intensity) EC50",5.9 nM
same,EC50,"SUDHL-10 cells (DLBCL); SU-DHL10, read-out: mBCMA (MFI) EC50",5.9 nM
same,mBCMA (MFI) Fold Increase,[2],6.6 fold
same,BCMA (Mean Fluorescence Intensity) 1 nM Compound (22),"[2]; 1 nM, 24 h",971.5
same,BCMA (Mean Fluorescence Intensity) 100 nM Compound (22),"[2]; 100 nM, 24 h",3287.5
same,EC50,[2]; [7],7 nM
same,EC50,[2]; read-out: mBCMA (MFI) EC50,7 nM
same,mBCMA (MFI) Fold Increase,[3],10.8 fold
same,BCMA (Mean Fluorescence Intensity) 1 nM Compound (22),"[3]; 1 nM, 24 h",4899
same,BCMA (Mean Fluorescence Intensity) 100 nM Compound (22),"[3]; 100 nM, 24 h",10264
same,EC50,[3]; [7],1.4 nM
same,EC50,[3]; read-out: mBCMA (MFI) EC50,1.4 nM
same,mBCMA (MFI) Fold Increase,[4],1.0 fold
same,BCMA (Mean Fluorescence Intensity) 1 nM Compound (22),"[4]; 1 nM, 24 h",289
same,BCMA (Mean Fluorescence Intensity) 100 nM Compound (22),"[4]; 100 nM, 24 h",293
same,EC50,[4]; [7],> 10000 nM
same,EC50,[4]; read-out: mBCMA (MFI) EC50,> 10000 nM
same,mBCMA (MFI) Fold Increase,[5],7.0 fold
same,BCMA (Mean Fluorescence Intensity) 1 nM Compound (22),"[5]; 1 nM, 24 h",4437
same,BCMA (Mean Fluorescence Intensity) 100 nM Compound (22),"[5]; 100 nM, 24 h",21757
same,EC50,[5]; [7],3.1 nM
same,EC50,[5]; read-out: mBCMA (MFI) EC50,3.1 nM
same,mBCMA (MFI) Fold Increase,DB cells (DLBCL),4.1 fold
same,BCMA (Mean Fluorescence Intensity) 1 nM Compound (22),"DB cells (DLBCL); 1 nM, 24 h",870
same,BCMA (Mean Fluorescence Intensity) 100 nM Compound (22),"DB cells (DLBCL); 100 nM, 24 h",1827
same,cell-bound BCMA,DB cells (DLBCL); FIG. 9A,increased cell-bound BCMA
same,EC50,DB cells (DLBCL); [7],4.9 nM
same,EC50,DB cells (DLBCL); read-out: mBCMA (MFI) EC50,4.9 nM
same,mBCMA (MFI) Fold Increase,DOHH-2 cells (DLBCL),4.4 fold
same,BCMA (Mean Fluorescence Intensity) 1 nM Compound (22),"DOHH-2 cells (DLBCL); 1 nM, 24 h",8033
same,BCMA (Mean Fluorescence Intensity) 100 nM Compound (22),"DOHH-2 cells (DLBCL); 100 nM, 24 h",12620
same,EC50,DOHH-2 cells (DLBCL); [7],0.87 nM
same,EC50,DOHH-2 cells (DLBCL); read-out: mBCMA (MFI) EC50,0.87 nM
same,mBCMA (MFI) Fold Increase,[6],1.0 fold
same,BCMA (Mean Fluorescence Intensity) 1 nM Compound (22),"[6]; 1 nM, 24 h",440
same,BCMA (Mean Fluorescence Intensity) 100 nM Compound (22),"[6]; 100 nM, 24 h",445
same,EC50,[6]; [7],> 10000 nM
same,EC50,[6]; read-out: mBCMA (MFI) EC50,> 10000 nM
